Data taken from patent publication US12234466B2, “Aspergillus microorganism carrying disruptions of multiple genes and a method of producing thereof” (KIKKOMAN CORPORATION, priority 2018, dated 2025).

Experiments:
[1] = test system: AotrpC-disrupted strain; assay: Growth on Sabouraud Dextrose Agar containing 5-FAA and 1 mM tryptophan; type: cell-based, Aspergillus oryzae
Method: (§1) The AotrpC-disrupted strain and Aspergillus oryzae RIB40 strain as a control were inoculated onto the plates of Sabouraud Dextrose Agar medium (BD) containing 0.12% (w/v) 5-FAA and 1 mM tryptophan, respectively. The plates were incubated at 30° C. for 4 days.
(§2) When the concentration of 5-FAA was changed to 0.1% (w/v), both the AotrpC-disrupted and RIB40 strains grew on the plates.

[2] = test system: Aspergillus oryzae RIB40 strain; assay: as above; type: cell-based
Method: as §1, §2

[3] = test system: Aspergillus sojae NBRC4239 strain; assay: Growth on potato dextrose agar containing 5-FAA and 1 mM tryptophan; type: cell-based
Method: (§3) The AstrpC-disrupted strain and Aspergillus sojae NBRC4239 strain as a control were inoculated onto the plates of potato dextrose agar medium (Nissui Pharmaceutical Co., Ltd.) containing 0.04% (w/v) 5-FAA and 1 mM tryptophan, respectively. The plates were incubated at 30° C. for 4 days. […] In addition, 5-FAA (5-fluoroanthranilic acid; Tokyo Chemical Industry Co., Ltd.) was prepared to become a 10% solution using ethanol, and the solution was added to the medium to ensure that the final concentration became the above-mentioned concentration.
(§4) When the concentration of 5-FAA was changed to 0.02% (w/v), both AstrpC-disrupted and NBRC4239 strains grew on the plates.

[4] = test system: AstrpC-disrupted strain; assay: as above; type: cell-based, Aspergillus sojae
Method: as §3, §4

[5] = 0.12% (w/v) 5-FAA, 30° C., 4 days
[6] = 0.04% (w/v) 5-FAA, 30° C., 4 days

Nc1ccc(F)cc1C(=O)O [5-FAA, 5-fluoroanthranilic acid]
growth of AotrpC-disrupted strain ([1]; 0.1% (w/v) 5-FAA): grew
growth of AotrpC-disrupted strain [1, 5]: grew
growth of RIB40 strain ([2]; 0.1% (w/v) 5-FAA): grew
growth of RIB40 strain [2, 5]: did not grow at all
growth of NBRC4239 strain ([3]; 0.02% (w/v) 5-FAA): grew
growth of NBRC4239 strain [3, 6]: did not grow at all
growth of AstrpC-disrupted strain ([4]; 0.02% (w/v) 5-FAA): grew
growth of AstrpC-disrupted strain [4, 6]: grew
